Results from patent US20080311047A1, “Multimetric Biosensors and Methods of Using Same” (priority 2005, published 2008).

Key:
[1] = target: T1, FLIPW-CTY (eCFP-TrpR-Venus) (Escherichia coli, UniProt P0A881); experiment: In vitro FRET titration of FLIPW-CTY with tryptophan substrates; format: binding, E. coli; details: for Kd: 20 mM MOPS pH 7.0, read-out: Affinity of FLIPW-CTY for tryptophan substrate
T1 construct: made in house; host or cells: E. coli BL21(DE3)gold
Procedure: (§1) In Vitro Characterization of FLIPW and FLIPpur Sensors: Purified sensor was added to a dilution series of ligand in 20 mM MOPS pH 7.0 (FLIPW) or 20 mM MES pH7.0 (FLIPpur) in the range of 10^−2 to 10^−6 M and analyzed in a monochromator microplate reader (Safire, Tecan, Austria; excitation 433/12 nm, emission 485/12 and 528/12 nm). Protein was diluted to give Venus/eYFP readouts of 20,000 to 30,000 at a manual gain between 70-75. By using the change in FRET ratio upon binding of ligand, binding constants (Kd) were determined by fitting the substrate titration curves to a single-site-binding isotherm. Formulas for decrease in ratio upon ligand binding:
(§2) R=Rmax−(n·[S])/(Kd+[S])·(Rmax−Rmin)
(§3) with [S], substrate concentration; n, number of equal binding sites; R, ratio; Rmax, maximum ratio in the absence of ligand; and Rmin, minimum ratio at saturation with ligand. Formula for increase in ratio upon ligand binding:
(§4) R=Rmin+(Rmax−Rmin)·(n·[S])/(Kd+[S])
(§5) with [S], substrate concentration; n, number of equal binding sites; R, ratio; Rmax, maximum ratio at saturation with ligand; and Rmin, minimum ratio in absence of ligand. Three independent protein preparations were analyzed and each protein preparation was analyzed in triplicate.

[2] = target: T2, FLIPW-CTYT (eCFP-TrpR-Venus-TrpR) (Escherichia coli, UniProt P0A881); experiment: In vitro FRET titration of FLIPW-CTYT with tryptophan substrates; format: binding, E. coli; details: 20 mM MOPS pH 7.0; read-out: Affinity of FLIPW-CTYT for tryptophan substrate
T2 construct: The gene products of pTK203, pTK204, and pTK205 were denoted FLIPW-TCTY, FLIPW-CTYT, and FLIPW-CTTY, respectively; made in house; host or cells: E. coli BL21(DE3)gold
Procedure: as §1, §2, §3, §4, §5

[3] = target: FLIPW-CTY (eCFP-TrpR-Venus fusion of E. coli tryptophan repressor TrpR, SEQ ID NO: 3) (Escherichia coli, UniProt P0A881); experiment: L-tryptophan analog titration of FLIPW-CTY by FRET ratio change, single-site-binding isotherm; details: FLIPW-CTY Kd compared with free TrpR (Marmorstein et al. 1987); larger than free TrpR
Description: The protein sequence encoded on pTK164 was denoted FLIPW-CTY.

LAT2 = target: T3, LAT2 (Homo sapiens, UniProt Q9UHI5); details: LAT2 in Xenopus oocytes (Pineda et al. 1999); cited from earlier work
T3 construct: host or cells: Xenopus oocytes
T3 sequence (Q9UHI5 1-535): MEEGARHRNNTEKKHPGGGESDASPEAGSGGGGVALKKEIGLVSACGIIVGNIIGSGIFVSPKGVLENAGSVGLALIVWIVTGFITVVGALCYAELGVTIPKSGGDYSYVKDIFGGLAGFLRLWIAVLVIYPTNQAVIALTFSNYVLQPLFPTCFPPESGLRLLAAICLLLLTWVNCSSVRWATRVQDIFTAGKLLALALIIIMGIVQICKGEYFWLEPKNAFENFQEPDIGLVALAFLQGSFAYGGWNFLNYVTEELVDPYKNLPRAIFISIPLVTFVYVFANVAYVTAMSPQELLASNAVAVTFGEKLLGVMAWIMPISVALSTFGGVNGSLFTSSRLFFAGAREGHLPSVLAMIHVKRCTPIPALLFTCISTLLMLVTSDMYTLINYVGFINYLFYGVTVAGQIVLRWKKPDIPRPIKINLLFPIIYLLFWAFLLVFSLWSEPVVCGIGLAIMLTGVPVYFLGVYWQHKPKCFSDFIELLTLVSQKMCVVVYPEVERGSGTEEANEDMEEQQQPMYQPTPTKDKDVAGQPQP

human TAT1 = target: T4, human TAT1 (Homo sapiens, UniProt Q8TF71); details: human TAT1 in Xenopus oocytes (Kim et al. 2002); cited from earlier work
T4 construct: host or cells: Xenopus oocytes
T4 sequence (Q8TF71 1-515): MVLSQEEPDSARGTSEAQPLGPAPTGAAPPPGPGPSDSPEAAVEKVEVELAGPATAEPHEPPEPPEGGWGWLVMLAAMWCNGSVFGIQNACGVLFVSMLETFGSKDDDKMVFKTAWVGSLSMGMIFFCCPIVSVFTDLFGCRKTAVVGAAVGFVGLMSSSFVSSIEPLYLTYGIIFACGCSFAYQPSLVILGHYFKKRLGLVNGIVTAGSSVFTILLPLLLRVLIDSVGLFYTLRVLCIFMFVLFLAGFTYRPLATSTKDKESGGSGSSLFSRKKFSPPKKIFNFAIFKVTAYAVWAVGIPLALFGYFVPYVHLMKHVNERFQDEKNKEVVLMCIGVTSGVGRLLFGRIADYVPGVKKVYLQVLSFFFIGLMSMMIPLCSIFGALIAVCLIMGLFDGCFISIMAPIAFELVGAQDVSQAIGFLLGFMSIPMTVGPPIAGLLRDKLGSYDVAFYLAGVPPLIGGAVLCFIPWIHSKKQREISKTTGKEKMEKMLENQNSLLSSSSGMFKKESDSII

COS-7 cells [4] = experiment: tryptophan uptake by COS-7 cell cultures in 96-well microplates monitored with FLIPW-CTYT; format: cell-based, monkey; details: in words
Procedure: (§6) Tissue Culture and Transfection: For cytosolic expression in COS-7 cells, the gene encoding CTYT was amplified by PCR with primers encoding unique BamHI and EcoRI restriction sites at the 5′ and 3′ end, respectively, and cloned into BamHI/EcoRI digested pcDNA3.1(+) vector (Invitrogen), resulting in plasmid pTK222. COS-7 cells were grown in Dulbecco's modified Eagle's medium (high glucose; DMEM, Gibco) with 10% fetal calf serum and 50 μg/ml penicillin and streptomycin (Gibco). Cells were cultured at 37° C. and 5% CO2. For imaging, cells were cultured in 8-well LabTekII German tissue culture glass slides (Nalg Nunc International) and transiently transfected at 50-70% confluence using Lipofectamine 2000 Reagent (Invitrogen) in Opti-MEM I reduced serum medium (Gibco). After transfection, cells were cultured for 16 hours in Opti-MEM followed by 3 hours in DMEM prior to imaging.
(§7) Microplate Assays: Adherent cells in 96-well microplates were washed once with 100 μl Tyrode's buffer (119 mM NaCl, 2.5 mM KCl, 2 mM CaCl2, 2 mM MgCl2, 25 mM HEPES, 30 mM glucose, pH 7.3-7.4).

[5] = tested on: E. coli tryptophan operon repressor TrpR, wild-type, SEQ ID NO: 1; details: Marmorstein et al. 1987; cited from earlier work
COS-7 cells [6] = details: read-out: apparent KM for combined transport and metabolism
Procedure: as §6, §7

[7] = target: FLIPW-TCTY (TrpR-eCFP-TrpR-Venus fusion of E. coli tryptophan repressor TrpR, SEQ ID NO: 5) (Escherichia coli, UniProt P0A881); experiment: L-tryptophan titration of FLIPW-TCTY by FRET ratio change; details: 20 mM MOPS pH 7.0, apparent binding constant
[8] = tested on: E. coli purine repressor PurR variant Arg190Gln; details: Lu et al. 1998; cited from earlier work
[9] = target: T5, FLIPpur (His6-eCFP-PurR-eYFP fusion of E. coli purine repressor PurR, residues 56 to 341, Arg190Gln, Leu263Pro) (Escherichia coli, UniProt P0ACP7, L263P/R190Q); experiment: hypoxanthine titration of FLIPpur by FRET ratio change; format: binding
T5 construct: expressed in E. coli BL21(DE3)gold, purified
T5 sequence (P0ACP7 56-341 R190Q/L263P): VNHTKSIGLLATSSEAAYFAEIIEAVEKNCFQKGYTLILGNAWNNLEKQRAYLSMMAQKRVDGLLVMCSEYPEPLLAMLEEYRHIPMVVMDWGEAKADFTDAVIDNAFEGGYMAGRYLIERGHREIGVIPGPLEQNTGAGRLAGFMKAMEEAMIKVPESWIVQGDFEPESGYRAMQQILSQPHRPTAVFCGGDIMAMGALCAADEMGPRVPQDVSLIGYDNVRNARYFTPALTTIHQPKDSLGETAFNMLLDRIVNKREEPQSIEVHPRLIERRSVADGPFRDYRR
Description: FLIPW and FLIPpur constructs were harbored in E. coli BL21(DE3)gold and sensor proteins were produced and purified as described previously (Fehr et al. 2002).

Which Kd [1] does the source give for `N[C@H](Cc1c[nH]c2ccccc12)C(=O)O` [D-tryptophan] here?
Its Kd is 3100 ± 300 µM.

And the “Concentration giving decrease of FRET ratio relative to L-tryptophan” value ([1]; titration of FLIPW-CTY, higher concentrations than L-tryptophan)?
Its value is “about 5 fold”.

Which Kd [1] does the source give for `N[C@@H](Cc1c[nH]c2ccc(O)cc12)C(=O)O` [L-5-hydroxy-tryptophan] here?
The Kd was 6000 ± 800 µM.

With `Cc1ccc2[nH]cc(C[C@H](N)C(=O)O)c2c1` [L-5-methyl-tryptophan] as the compound, how does the Kd [1] read?
The Kd was 60 ± 10 µM.

Which Kd [2] does the source give for `N[C@@H](Cc1c[nH]c2ccccc12)C(=O)O` [L-tryptophan] here?
Its Kd is 210 ± 20 µM.

What about the “apparent Kd relative to free TrpR” value [3] of the same compound?
The value was “about an order of magnitude”.

What about the Kd [1] of the same compound?
The Kd was 220 ± 20 µM.

What about the Tryptophan uptake affinity (LAT2) of the same compound?
The Tryptophan uptake affinity was 58 µM.

And the Tryptophan uptake affinity (human TAT1)?
Its Tryptophan uptake affinity is 450 µM.

And the “effective KM for combined tryptophan uptake and metabolism” value (COS-7 cells [4])?
Its value is “in the micromolar range”.

What about the affinity [5] of the same compound?
Its affinity is “micromolar affinity”.

What about the Km (COS-7 cells [6]) of the same compound?
The Km was 0.88 ± 0.27 µM.

What about the Kd [7] of the same compound?
Its Kd is 20 µM.

With `O=c1[nH]cnc2nc[nH]c12` [hypoxanthine] as the compound, how does the “Kd of free PurR Arg190Gln compared with FLIPpur” value [8] read?
The value was “identical to that of free PurR Arg190Gln”.

And the Kd [9]?
The Kd was 5.6 ± 0.7 µM.
